Tests used:
Test in all cases: relative viability (nuclei count vs DMSO), 5 days (fraction); higher = more cells survive
NCI-H1437 = test system: NCI-H1437
Summary of the method: (§1)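 Lung cancer cell lines in 1536-well plates were dosed by pin tool the day after seeding, either with one drug alone or with a fixed anchor-drug dose plus five library-drug doses (not always all listed) in √10 steps. After 5 days, cells were fixed and their nuclei stained in one step (final 0.05% Triton X-100, 1% formaldehyde, 1 ug/ml Hoechst), then counted on 4× images. Relative viability is the nuclei count in treated wells divided by that in vehicle wells. Values are medians of duplicate plates.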

NCI-H23 = test system: NCI-H23
Summary of the method: as §1

HCC-366 = test system: HCC-366
Summary of the method: as §1

SW 1573 = test system: SW 1573
Summary of the method: as §1

NCI-H727 = test system: NCI-H727
Summary of the method: as §1

NCI-H460 = test system: NCI-H460
Summary of the method: as §1

HCC-827 = test system: HCC-827
Summary of the method: as §1

CAL-12T = test system: CAL-12T
Summary of the method: as §1

LCLC-103H = test system: LCLC-103H
Summary of the method: as §1

HOP-62 = test system: HOP-62
Summary of the method: as §1

SK-LU-1 = test system: SK-LU-1
Summary of the method: as §1

EMC-BAC-2 = test system: EMC-BAC-2
Summary of the method: as §1

COR-L 105 = test system: COR-L 105
Summary of the method: as §1

NCI-H1915 = test system: NCI-H1915
Summary of the method: as §1

HARA = test system: HARA
Summary of the method: as §1

NCI-H2228 = test system: NCI-H2228
Summary of the method: as §1

NCI-H2009 = test system: NCI-H2009
Summary of the method: as §1

NCI-H1755 = test system: NCI-H1755
Summary of the method: as §1

NCI-H1792 = test system: NCI-H1792
Summary of the method: as §1

A-427 = test system: A-427
Summary of the method: as §1

`CCN(CC)CCCCNc1ncc2cc(-c3cc(OC)cc(OC)c3)c(NC(=O)NC(C)(C)C)nc2n1` + CC(C)C[C@H](NC(=O)[C@H](Cc1ccccc1)NC(=O)c1cnccn1)B(O)O [Bortezomib] (partner 0.002 µM) was tested, and the relative viability (NCI-H1437; first compound 0.01 µM) was 0.536, the relative viability (NCI-H1437; first compound 0.03162 µM) was 0.533 and the relative viability (NCI-H1437; first compound 0.1 µM) was 0.593. It also gave a relative viability (NCI-H1437; first compound 0.3162 µM) of 0.554, a relative viability (NCI-H1437; first compound 1 µM) of 0.472 and a relative viability (NCI-H23; first compound 0.01 µM) of 1.06. The relative viability (NCI-H23; first compound 0.03162 µM) was 1.24, the relative viability (NCI-H23; first compound 0.1 µM) was 1.09 and the relative viability (NCI-H23; first compound 0.3162 µM) was 1.21. For the same compound, the relative viability (NCI-H23; first compound 1 µM) was 0.91, the relative viability (HCC-366; first compound 0.01 µM) was 1.09 and the relative viability (HCC-366; first compound 0.03162 µM) was 1.06. It also gave a relative viability (HCC-366; first compound 0.1 µM) of 1.48, a relative viability (HCC-366; first compound 0.3162 µM) of 1.29 and a relative viability (HCC-366; first compound 1 µM) of 0.968. For the same compound, the relative viability (SW 1573; first compound 0.01 µM) was 1.03, the relative viability (SW 1573; first compound 0.03162 µM) was 0.991 and the relative viability (SW 1573; first compound 0.1 µM) was 1.07. For the same compound, the relative viability (SW 1573; first compound 0.3162 µM) was 1.03, the relative viability (SW 1573; first compound 1 µM) was 0.936 and the relative viability (NCI-H727; first compound 0.01 µM) was 1.39. The relative viability (NCI-H727; first compound 0.03162 µM) was 0.871, the relative viability (NCI-H727; first compound 0.1 µM) was 0.809 and the relative viability (NCI-H727; first compound 0.3162 µM) was 1.2. It also gave a relative viability (NCI-H727; first compound 1 µM) of 0.783, a relative viability (NCI-H460; first compound 0.01 µM) of 1.3 and a relative viability (NCI-H460; first compound 0.03162 µM) of 1.33. The relative viability (NCI-H460; first compound 0.3162 µM) was 1.62, the relative viability (NCI-H460; first compound 1 µM) was 1.04 and the relative viability (HCC-827; first compound 0.01 µM) was 1.07. The relative viability (HCC-827; first compound 0.03162 µM) was 1, the relative viability (HCC-827; first compound 0.1 µM) was 1.09 and the relative viability (HCC-827; first compound 0.3162 µM) was 1.04. For the same compound, the relative viability (HCC-827; first compound 1 µM) was 1.05, the relative viability (CAL-12T; first compound 0.03162 µM) was 1.02 and the relative viability (CAL-12T; first compound 0.1 µM) was 1.03. For the same compound, the relative viability (CAL-12T; first compound 0.3162 µM) was 1.26, the relative viability (CAL-12T; first compound 1 µM) was 0.769 and the relative viability (LCLC-103H; first compound 0.01 µM) was 1.07. For the same compound, the relative viability (LCLC-103H; first compound 0.03162 µM) was 1.06, the relative viability (LCLC-103H; first compound 0.1 µM) was 1.09 and the relative viability (LCLC-103H; first compound 0.3162 µM) was 1.13. For the same compound, the relative viability (LCLC-103H; first compound 1 µM) was 0.945, the relative viability (HOP-62; first compound 0.01 µM) was 0.726 and the relative viability (HOP-62; first compound 0.03162 µM) was 0.888. For the same compound, the relative viability (HOP-62; first compound 0.1 µM) was 0.728, the relative viability (HOP-62; first compound 0.3162 µM) was 0.717 and the relative viability (HOP-62; first compound 1 µM) was 0.79. For the same compound, the relative viability (SK-LU-1; first compound 0.01 µM) was 1.1, the relative viability (SK-LU-1; first compound 0.03162 µM) was 0.911 and the relative viability (SK-LU-1; first compound 0.1 µM) was 1.27. The relative viability (SK-LU-1; first compound 0.3162 µM) was 1.75, the relative viability (SK-LU-1; first compound 1 µM) was 1.06 and the relative viability (EMC-BAC-2; first compound 0.01 µM) was 1.11. The relative viability (EMC-BAC-2; first compound 0.03162 µM) was 1.07, the relative viability (EMC-BAC-2; first compound 0.1 µM) was 1.11 and the relative viability (EMC-BAC-2; first compound 0.3162 µM) was 1.19. For the same compound, the relative viability (EMC-BAC-2; first compound 1 µM) was 1.04, the relative viability (COR-L 105; first compound 0.01 µM) was 0.691 and the relative viability (COR-L 105; first compound 0.03162 µM) was 0.824. It also gave a relative viability (COR-L 105; first compound 0.1 µM) of 0.859, a relative viability (COR-L 105; first compound 0.3162 µM) of 0.968 and a relative viability (COR-L 105; first compound 1 µM) of 0.732. The relative viability (NCI-H1915; first compound 0.01 µM) was 1.07, the relative viability (NCI-H1915; first compound 0.03162 µM) was 1.1 and the relative viability (NCI-H1915; first compound 0.1 µM) was 1.18. It also gave a relative viability (NCI-H1915; first compound 0.3162 µM) of 1.09, a relative viability (NCI-H1915; first compound 1 µM) of 0.951 and a relative viability (HARA; first compound 0.01 µM) of 1.19. For the same compound, the relative viability (HARA; first compound 0.03162 µM) was 1.12, the relative viability (HARA; first compound 0.1 µM) was 1.26 and the relative viability (HARA; first compound 0.3162 µM) was 1.04. For the same compound, the relative viability (HARA; first compound 1 µM) was 0.882, the relative viability (NCI-H2228; first compound 0.01 µM) was 0.874 and the relative viability (NCI-H2228; first compound 0.03162 µM) was 0.997. The relative viability (NCI-H2228; first compound 0.1 µM) was 1.24, the relative viability (NCI-H2228; first compound 0.3162 µM) was 1.11 and the relative viability (NCI-H2228; first compound 1 µM) was 1.02. It also gave a relative viability (NCI-H2009; first compound 0.01 µM) of 0.958, a relative viability (NCI-H2009; first compound 0.03162 µM) of 1.06 and a relative viability (NCI-H2009; first compound 0.1 µM) of 1.1. The relative viability (NCI-H2009; first compound 0.3162 µM) was 1.07, the relative viability (NCI-H2009; first compound 1 µM) was 0.966 and the relative viability (NCI-H1755; first compound 0.01 µM) was 0.977. It also gave a relative viability (NCI-H1755; first compound 0.03162 µM) of 0.992, a relative viability (NCI-H1755; first compound 0.1 µM) of 1.01 and a relative viability (NCI-H1755; first compound 0.3162 µM) of 1.07. The relative viability (NCI-H1755; first compound 1 µM) was 0.936, the relative viability (NCI-H1792; first compound 0.01 µM) was 1.05 and the relative viability (NCI-H1792; first compound 0.03162 µM) was 1.05. The relative viability (NCI-H1792; first compound 0.1 µM) was 0.924, the relative viability (NCI-H1792; first compound 0.3162 µM) was 1.38 and the relative viability (NCI-H1792; first compound 1 µM) was 0.689. The relative viability (A-427; first compound 0.01 µM) was 1.1, the relative viability (A-427; first compound 0.03162 µM) was 0.989 and the relative viability (A-427; first compound 0.1 µM) was 1.12. The relative viability (A-427; first compound 0.3162 µM) was 1.06 and the relative viability (A-427; first compound 1 µM) was 0.913.
